Laboratory results: patent US11617733B2, “Bicyclic compound and use thereof for medical purposes” (ONO PHARMACEUTICAL CO., LTD., priority 2009, dated 2023)

Columns and labels:
[1] = tested on: male rabbit (NewZealandWhite); assay: Aqueous humor protein concentration in rabbit after ocular instillation; format: in vivo; conditions: ocular instillation 30 μL, 0.1% (w/v), 0-8 hours
Procedure: (2-2) Assessment of Ocular Stimulating Property and Aqueous Humor Protein Concentration
To one eye of a male rabbit (NewZealandWhite, 2.0 to 3.0 kg) was ocular-instilled 30 μL of the compound of Example 16 (35), the compound of Example 16 (3) and the compound of Example 16 (25) which had been adjusted to 0.1% (w/v) with a base (containing citrate buffer pH 6.5, 0.5% polysorbate 80, 1% propylene glycol, 0.01% benzalkonium chloride), respectively. Thereafter, an aqueous humor in anterior chamber after 0, 1, 2, 4, 6 and 8 hours from ocular instillation was collected, and a protein concentration in the humor was measured. As a comparative compound, the aforementioned methyl ester of the compound of Example 12 described in Patent Literature 2 (i.e. compound of Example 10 described in Patent Literature 2) (hereinafter, abbreviated as Comparative Compound B in some cases) was used.
Regarding any test compound, a dose until a dissolution limit (150 to 1000 μg/mL) was administered and action of each active body was assessed.

male dog (TOYO Beagle) = assay: Intraocular pressure lowering action in dog after ocular instillation; format: in vivo
Procedure: (2-1) Intraocular Pressure Lowering Action
To one eye of a male dog (TOYO Beagle) which had been sufficiently acclimated in advance was ocular-instilled 30 μL of each test compound (compound of Example 16 (35), compound of Example 16 (3) and compound of Example 16(25)) which had been adjusted with a base (containing citrate buffer pH 6.5, 0.5% polysorbate 80, 1% propylene glycol, 0.01% benzalkonium chloride) to 0.01% (w/v) or 0.001% (w/v), respectively. The other eye was not treated. As a positive control compound, latanoprost which is the known compound was used.
Thereafter, an ocular surface anesthetic (Benoxil eye drops 0.4%, Santen Pharmaceutical Co., Ltd.) was subjected to ocular instillation to locally anesthetize eyes, and an intraocular pressure of each test compound before ocular instillation and after 2, 4, 6, 8, and 24 hours from ocular instillation was measured. An intraocular pressure was measured using a pneumatic applanation flat tonometer (Model 30 Classic, REICHERT). An intraocular pressure lowering rate (%) was calculated by the following equation. Intraocular pressure lowering rate (%)=(intraocular pressure value before ocular instillation−intraocular pressure value at each point)/(intraocular pressure value before ocular instillation)×100 [Mathematic 1]

Structure (SMILES) | Action on protein concentration in aqueous humor (in words) [1] | Intraocular pressure lowering action compared with positive control latanoprost (in words) (male dog (TOYO Beagle))
CC(C)OC(=O)CCC[C@H]1CC[C@@H]2[C@@H](/C=C/[C@@H](O)COc3cccc(Cl)c3)[C@H](O)C[C@@H]2OC1 [Example 16 (3), 2-Propanyl 4-{(3S, 5aR, 6R, 7R, 8aS)-6-[(1E, 3R)-4-(3-chlorophenoxy)-3-hydroxy-1-buten-1-yl]-7-hydroxyoctahydro-2H-cyclopenta[b]oxepin-3-yl}butanoate] | no action of raising a protein concentration in an aqueous humor | stronger intraocular pressure lowering action as compared with latanoprost
CC(C)OC(=O)CCC[C@H]1CC[C@@H]2[C@@H](/C=C/[C@@H](O)COc3cc(F)ccc3F)[C@H](O)C[C@@H]2OC1 [Example 16 (25), 2-Propanyl 4-{(3S, 5aR, 6R, 7R, 8aS)-6-[(1E, 3R)-4-(2,5-difluorophenoxy)-3-hydroxy-1-buten-1-yl]-7-hydroxyoctahydro-2H-cyclopenta[b]oxepin-3-yl}butanoate] | no action of raising a protein concentration in an aqueous humor | stronger intraocular pressure lowering action as compared with latanoprost
CCOC(=O)CCC[C@H]1CC[C@@H]2[C@@H](/C=C/[C@@H](O)COc3ccccc3)[C@H](O)C[C@@H]2OC1 [Example 16 (35), Ethyl 4-{(3S, 5aR, 6R, 7R, 8aS)-7-hydroxy-6-[(1E, 3R)-3-hydroxy-4-phenoxy-1-buten-1-yl]octahydro-2H-cyclopenta[b]oxepin-3-yl}butanoate] | no action of raising a protein concentration in an aqueous humor | stronger intraocular pressure lowering action as compared with latanoprost
